Data reported in US9695155B2, “Herbicidal substituted pyrimidinyloxy benzene compounds” (E. I. DU PONT DE NEMOURS AND COMPANY, priority 2013, dated 2017).

How the values were obtained:
palmer pigweed = experiment: Test E preemergence; format: in vivo, Amaranthus palmeri; settings: for Pigweed, Palmer plant response rating: scale 0 to 100 (0 no effect, 100 complete control)
In short: (§1)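 Compound in a non-phytotoxic solvent mixture with surfactant was applied preemergence to seeds in silt loam soil, or postemergence to plants 2 to 18 cm tall grown in peat-based potting medium. Plants were kept in a greenhouse for 14 to 21 days, then rated visually against untreated controls on a 0 (no effect) to 100 (complete control) scale.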

sedge, umbrella = experiment: Test C flooded paddy test; format: in vivo, Cyperus difformis; settings: Flood, scale 0 to 100 (0 no effect, 100 complete control), 13 to 15 days
In short: (§2)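 Pots were flooded to 3 cm above the soil surface at treatment, compound applied directly to the paddy water, and that depth held throughout. Plants were kept in a greenhouse for 13 to 15 days, then visually rated against untreated controls.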

yellow nutsedge = experiment: Test E preemergence; format: in vivo, Cyperus esculentus; settings: for Nutsedge, Yellow plant response rating: scale 0 to 100 (0 no effect, 100 complete control)
In short: as §1

Brazilian crabgrass = experiment: Test E preemergence; format: in vivo, Digitaria horizontalis; settings: for Crabgrass, Brazil plant response rating: scale 0 to 100 (0 no effect, 100 complete control)
In short: as §1

field bindweed = experiment: Test E preemergence; format: in vivo, Convolvulus arvensis; settings: for Field Bindweed plant response rating: scale 0 to 100 (0 no effect, 100 complete control)
In short: as §1

arrowleaf sida = experiment: Test E preemergence; format: in vivo, Sida rhombifolia; settings: preemergence; for Arrowleaf Sida plant response rating: scale 0 to 100 (0 no effect, 100 complete control)
In short: as §1

rice = experiment: Test C flooded paddy test; format: in vivo, Oryza sativa; settings: Flood, scale 0 to 100 (0 no effect, 100 complete control), 13 to 15 days
In short: as §2

corn = experiment: Test E preemergence; format: in vivo, Zea mays; settings: for Corn plant response rating: scale 0 to 100 (0 no effect, 100 complete control)
In short: as §1

lambsquarters = experiment: Test E preemergence; format: in vivo, Chenopodium album; settings: for Lambsquarters plant response rating: scale 0 to 100 (0 no effect, 100 complete control)
In short: as §1

velvetleaf = experiment: Test E preemergence; format: in vivo, Abutilon theophrasti; settings: for Velvetleaf plant response rating: scale 0 to 100 (0 no effect, 100 complete control)
In short: as §1

waterhemp = experiment: Test E preemergence; format: in vivo, Amaranthus rudis; settings: for Waterhemp plant response rating: scale 0 to 100 (0 no effect, 100 complete control)
In short: as §1

johnsongrass = experiment: Test E preemergence; format: in vivo, Sorghum halepense; settings: for Johnsongrass plant response rating: scale 0 to 100 (0 no effect, 100 complete control)
In short: as §1

[1] = 8 g ai/ha, scale 0 to 100, 0 is no effect, 100 is complete control
[2] = 125 g ai/ha, scale 0 to 100, 0 no effect, 100 complete control

Fc1cccc(Oc2ncc(Cl)cn2)c1-n1cc(I)cn1 [Compound 179]
Plant response rating, Pigweed, Palmer (palmer pigweed; [1]): 0 | Pigweed, Palmer plant response rating (palmer pigweed; 62 g ai/ha): 100 | Plant response rating, Pigweed, Palmer (palmer pigweed; [2]): 100 | Plant response rating, Sedge, Umbrella (sedge, umbrella; 31 g ai/ha): 0 | Plant response rating, Sedge, Umbrella (sedge, umbrella; 62 g ai/ha): 0 | Plant response rating, Sedge, Umbrella (sedge, umbrella; 125 g ai/ha): 40 | Plant response rating, Sedge, Umbrella (sedge, umbrella; 250 g ai/ha): 80 | Plant response rating, Nutsedge, Yellow (yellow nutsedge; [1]): 0 | Nutsedge, Yellow plant response rating (yellow nutsedge; 62 g ai/ha): 30 | Plant response rating, Nutsedge, Yellow (yellow nutsedge; [2]): 30 | Plant response rating, Crabgrass, Brazil (Brazilian crabgrass; [1]): 0 | Crabgrass, Brazil plant response rating (Brazilian crabgrass; 16 g ai/ha): 0 | Crabgrass, Brazil plant response rating (Brazilian crabgrass; 62 g ai/ha): 65 | Plant response rating, Crabgrass, Brazil (Brazilian crabgrass; [2]): 100 | Plant response rating, Field Bindweed (field bindweed; [1]): 0 | Field Bindweed plant response rating (field bindweed; 16 g ai/ha): 0 | Field Bindweed plant response rating (field bindweed; 62 g ai/ha): 0 | Plant response rating, Field Bindweed (field bindweed; [2]): 30 | Plant response rating, Arrowleaf Sida (arrowleaf sida; [1]): 0 | Arrowleaf Sida plant response rating (arrowleaf sida; 16 g ai/ha): 20 | Arrowleaf Sida plant response rating (arrowleaf sida; 62 g ai/ha): 100 | Plant response rating, Arrowleaf Sida (arrowleaf sida; [2]): 100 | Plant response rating, Rice (rice; 31 g ai/ha): 0 | Plant response rating, Rice (rice; 62 g ai/ha): 0 | Plant response rating, Rice (rice; 125 g ai/ha): 10 | Plant response rating, Rice (rice; 250 g ai/ha): 10 | Plant response rating, Corn (corn; [1]): 0 | Corn plant response rating (corn; 16 g ai/ha): 0 | Corn plant response rating (corn; 62 g ai/ha): 0 | Plant response rating, Corn (corn; [2]): 0 | Plant response rating, Lambsquarters (lambsquarters; [1]): 0 | Lambsquarters plant response rating (lambsquarters; 62 g ai/ha): 95 | Plant response rating, Lambsquarters (lambsquarters; [2]): 100 | Plant response rating, Velvetleaf (velvetleaf; [1]): 20 | Velvetleaf plant response rating (velvetleaf; 62 g ai/ha): 100 | Plant response rating, Velvetleaf (velvetleaf; [2]): 100 | Plant response rating, Waterhemp (waterhemp; [1]): 0 | Waterhemp plant response rating (waterhemp; 62 g ai/ha): 90 | Plant response rating, Waterhemp (waterhemp; [2]): 98 | Plant response rating, Johnsongrass (johnsongrass; [1]): 0 | Johnsongrass plant response rating (johnsongrass; 62 g ai/ha): 20 | Plant response rating, Johnsongrass (johnsongrass; [2]): 25

FC(F)c1cccc(Oc2ncc(Cl)cn2)c1-n1cc(Br)cn1 [Compound 194, 2-[2-(4-bromo-1H-pyrazol-1-yl)-3-(difluoromethyl)phenoxy]-5-chloropyrimidine]
Pigweed, Palmer plant response rating (palmer pigweed; 31 g ai/ha): 98 | Pigweed, Palmer plant response rating (palmer pigweed; 62 g ai/ha): 100 | Plant response rating, Sedge, Umbrella (sedge, umbrella; 31 g ai/ha): 50 | Plant response rating, Sedge, Umbrella (sedge, umbrella; 62 g ai/ha): 75 | Plant response rating, Sedge, Umbrella (sedge, umbrella; 125 g ai/ha): 85 | Plant response rating, Sedge, Umbrella (sedge, umbrella; 250 g ai/ha): 95 | Nutsedge, Yellow plant response rating (yellow nutsedge; 31 g ai/ha): 0 | Nutsedge, Yellow plant response rating (yellow nutsedge; 62 g ai/ha): 20 | Crabgrass, Brazil plant response rating (Brazilian crabgrass; 31 g ai/ha): 65 | Crabgrass, Brazil plant response rating (Brazilian crabgrass; 62 g ai/ha): 98 | Field Bindweed plant response rating (field bindweed; 31 g ai/ha): 0 | Field Bindweed plant response rating (field bindweed; 62 g ai/ha): 40 | Arrowleaf Sida plant response rating (arrowleaf sida; 31 g ai/ha): 35 | Arrowleaf Sida plant response rating (arrowleaf sida; 62 g ai/ha): 100 | Plant response rating, Rice (rice; 31 g ai/ha): 10 | Plant response rating, Rice (rice; 62 g ai/ha): 10 | Plant response rating, Rice (rice; 125 g ai/ha): 10 | Plant response rating, Rice (rice; 250 g ai/ha): 10 | Corn plant response rating (corn; 31 g ai/ha): 0 | Corn plant response rating (corn; 62 g ai/ha): 0 | Lambsquarters plant response rating (lambsquarters; 31 g ai/ha): 80 | Lambsquarters plant response rating (lambsquarters; 62 g ai/ha): 100 | Velvetleaf plant response rating (velvetleaf; 31 g ai/ha): 5 | Velvetleaf plant response rating (velvetleaf; 62 g ai/ha): 25 | Waterhemp plant response rating (waterhemp; 31 g ai/ha): 98 | Waterhemp plant response rating (waterhemp; 62 g ai/ha): 100 | Johnsongrass plant response rating (johnsongrass; 31 g ai/ha): 0 | Johnsongrass plant response rating (johnsongrass; 62 g ai/ha): 50
